One data set concerns CD133+ PPT2 cells. Briefly: Stemness gene expression in PPT2 cells (PCR array, Western blot). It is filed as cell-based, human. The procedure: Experiments were carried out with a patient-derived cancer stem cell line for prostate cancer, PPT2 (Botchkina 2013, Rowehl 2014). The cell line PPT2 was generated from a patient-derived prostate cancer tumor. […] The PPT2 cell line was serially propagated as NOD/SCID mice tumor xenografts, floating 3D spheroids and type I collagen-adherent cultures. According to the ATCC report (ID number 002872), the PPT2 cells were unique human cells not contaminated with any known established cell lines. Although phenotype of the CSC-enriched cultures was dynamic due to the dual nature of the CSCs (i.e., ability to self-renew and to generate committed progenitors), the PPT2 cells retained a relatively stable phenotype, even up to 8 weeks after MACS-CD133^+ cell sorting and culturing on type I collagen coated surfaces in serum-free medium. […] Both nuclear and cytoplasmic fractions of the PPT2 cells expressed c-Myc, whereas other pluripotency markers (Oct-4 and Sox-2) were detected only in nuclear fraction. […]
To characterize possible drug induced alterations in stemness gene expression, CD133^+ PPT2 cells were analyzed before and after treatment with a combination of SBT-1214 and CMC 2.24, a chemically-modified curcumin. […]
On the technique in general: A western blot detects proteins with antibodies after separation by electrophoresis.

The next data set concerns DLD-1 spheroids. As to the kind of experiment: Colon cancer stem cell 3D spheroids, DLD-1. Format: cell-based, human. The procedure: (§1) In another example, stem-cell enriched populations of colon cancer cells were selected from three invasive colon cancer cell lines, HCT116, HT29, and DLD-1. The populations were grown as 3D multicellular spheroids.
DLD-1: CD4, CDH2, COL1A1, DLL1, DTX1, IGF1, FGF3, FZD1, JAG1, KRT15, MSX1, NCAM1 and NOTCH1 (Botchkina, et al., 2010).

For the next data set, the system named is HCT116 spheroids. Briefly: Colon cancer stem cell 3D spheroids, HCT116. It is filed as cell-based, human. The protocol:
as §1
HCT116: SOX1, RPL13A, BMP1, BMP3, NEUROG2, GJB1, GJA1, ASCL2, CTNNA1, GDF2, ALPI, S100B, CD8B1, ACTB, CCND1, FGF1, PARD6A, DVL1, GDF3, ISL1, CD3D, MME, FGFR1, RB1, AIN1, ALDH1A1, CD8A, PPARD, FZD1, NUMB and ABCG2;

The test system of data set [1] is drug resistant cancer cells, expressing MDR phenotypes. The note with it: cited from earlier work.
The next data set concerns tubulin. The note with it: cited from earlier work.
The test system of data set [2] is H460 human non-small cell lung tumor xenograft. As to the kind of experiment: H460 non-small cell lung tumor xenograft in SCID mice. The note with it: for tumor growth delay: at (about) MTD.
Data set [3] relates to drug resistant (Pgp+) colon tumor xenografts. The note with it: mouse, in vivo; cited from earlier work.
Data set [4] deals with human CFPAC-1 ductal pancreatic adenocarcinoma xenograft. As to the kind of experiment: CFPAC-1 pancreatic adenocarcinoma xenograft in SCID mice. The note with it: for tumor growth delay as compared to vehicles: mouse, in vivo.
The subject of a further data set is HT29 spheroids. Briefly: Colon cancer stem cell 3D spheroids, HT29. It is filed as cell-based, human. The protocol: as §1
HT29: ACAN, ALPI, BMP3, CD3D, CD4, CD8A, CD8B, CDH2, COL2A1, COL9A1, DHH, DLL1, DLL3, DTX1, FGF1, FGF3, FZD1, GDF2, IGF1, MME, MYOD, NCAM1, NEUROG2, S100B, SOX2, and TERT;

Data set [5] deals with human PANC-1 pancreatic tumor xenograft. Briefly: PANC-1 pancreatic tumor xenograft in SCID mice. Format: in vivo, RPCI SCID mice. The note with it: for complete remissions: mouse, in vivo. An excerpt: This experiment compared a q7dx3 with a q3dx3 schedule for PX and DHA-SBT-1214 using a human PANC-1 pancreatic tumor xenograft in RPCI SCID mice.
Data set [6] has as its system paclitaxel-resistant, Pgp(+) DLD1 human colon tumor xenograft. Briefly: DLD1 human colon tumor xenograft in SCID mice. In general terms: In xenograft studies the graft and the host belong to different species.
Data set [7] deals with H460 human non-small cell lung tumor xenograft. The settings on record: mouse, in vivo.
Where [8] appears, read: 80 mg/kg dose on days 5, 8, and 11.

Where two headings read alike, the source gives them in different places. Where only a bound is given, the exact number is not on record here.

In the case of `CC(=O)O[C@@]12CO[C@@H]1C[C@H](O)[C@@]1(C)C(=O)[C@H](OC(=O)C3CC3)C3=C(C)[C@@H](OC(=O)[C@H](O)[C@H](C=C(C)C)NC(=O)OC(C)(C)C)C[C@@](O)([C@@H](OC(=O)c4ccccc4)[C@H]21)C3(C)C` [SBT-1214], the “expression of p21 and p53” value with CD133+ PPT2 cells is listed as “induced expression”. In the data set with CD133+ PPT2 cells (CD133+ and bulk PPT2 cells), the “c-Myc and Sox2 in nuclear extracts (Western blot)” value is “moderate down-regulation”. In addition, the “growth of the secondary spheroids” value in the data set with DLD-1 spheroids (100 nM for 48 h), in the data set with HCT116 spheroids (100 nM for 48 h) and in the data set with HT29 spheroids (100 nM for 48 h) was “marked suppression” in each case. Also, the cytotoxicity in spheroids entry in the data set on DLD-1 spheroids (3D multicellular spheroids), in the data set on HCT116 spheroids (3D multicellular spheroids) and with HT29 spheroids (3D multicellular spheroids) was “effectively induced cytotoxicity” each time. Further, the stemness-associated genes result in the data set on DLD-1 spheroids (gene list), in the data set on HCT116 spheroids (gene list) and in the data set with HT29 spheroids (gene list) was “downregulated” in each case. In addition, the “potency relative to paclitaxel” value in data set [1] was 2-3 orders of magnitude. For the same compound, in the data set with tubulin, the “time to polymerize tubulin” value was “a matter of minutes”. The tumor growth delay is on record as 34 days in [2] and more than 187 days in data set [3]. The MTD in data set [2] (mouse, in vivo) is approximately 120 mg/kg total dose. In addition, the “long-term regression and tumor growth delay” value in [3] is reported as 167 days. Also, the tumor regression result in data set [3] is recorded as “complete regression in all surviving mice”. Moreover, in data set [4] (until day 20, 120 mg/kg total dose), the weight loss is recorded as less than 4%.
For the compound `CC/C=C\C/C=C\C/C=C\C/C=C\C/C=C\C/C=C\CCC(=O)O[C@@H](C(=O)O[C@H]1C[C@@]2(O)[C@@H](OC(=O)c3ccccc3)[C@@H]3[C@]4(OC(C)=O)CO[C@@H]4C[C@H](O)[C@@]3(C)C(=O)[C@H](OC(=O)C3CC3)C(=C1C)C2(C)C)[C@H](C=C(C)C)NC(=O)OC(C)(C)C` [DHA-SBT-1214], the tumor growth delay in [2] is 55 days; in data set [5] (both schedules, q7dx3 and q3dx3), more than 90 days; in data set [6] (setting [8]), more than 187 days. This compound returned an MTD in data set [2] (mouse, in vivo) of approximately 240 mg/kg total dose. The tolerability result in data set [2] (mouse, in vivo) was “clearly better tolerated than SBT-1214”. The weight loss entry in [4] (240 mg/kg or 300 mg/kg total dose) is “negligible”. For the same compound, the “maximum tolerated dose (MTD)” value in data set [5] (80 mg/kg x 3 inj) is listed as 240 mg/kg total dosage. The toxic death entry in [5] (300 mg/kg total dose) is listed as “one toxic death”. Moreover, the complete remissions entry in data set [5] was “achieved complete remissions”. In data set [6] (setting [8]), the “complete regression of the DLD-1 tumor” value is on record as 5 of 5.
In data set [7], `CC/C=C\C/C=C\C/C=C\C/C=C\C/C=C\C/C=C/CCC(=O)O[C@@H](C(=O)O[C@H]1C[C@@]2(O)[C@@H](OC(=O)c3ccccc3)C3[C@](C)(C(=O)[C@H](OC(C)=O)C(=C1C)C2(C)C)[C@@H](O)C[C@H]1OC[C@@]31OC(C)=O)[C@@H](NC(=O)c1ccccc1)c1ccccc1` (stereo partly shown) [DHA-paclitaxel, reference compound] showed an MTD of 240 mg/kg total dose. In addition, in [2], the tumor growth delay is reported as 3 days. The “tumor growth delay as compared to vehicles” value in data set [4] was “only minor tumor growth delay”.
Take `CC(=O)O[C@H]1C(=O)[C@@]2(C)[C@H]([C@H](OC(=O)c3ccccc3)[C@]3(O)C[C@H](OC(=O)[C@H](O)[C@@H](NC(=O)c4ccccc4)c4ccccc4)C(C)=C1C3(C)C)[C@]1(OC(C)=O)CO[C@@H]1C[C@@H]2O` [paclitaxel, reference compound]: the “time to polymerize tubulin” value in the data set on tubulin is given as “hours”. The tumor growth delay in [2] is reported as 8 days; in [5] (q3dx3 schedule), 13 days; in data set [5] (q7dx3 schedule), 18 days. The MTD in data set [2] (mouse, in vivo) worked out at 75 mg/kg total dose. For the same compound, in data set [4], the “tumor growth delay as compared to vehicles” value is on record as “only minor tumor growth delay”. Also, the complete remissions entry in data set [5] is recorded as “no complete remissions”. The “efficacy against tumor xenograft” value in [6] (s.c. xenograft) is reported as “totally ineffective”.

The values are drawn from USRE50096E1, “Nanoemulsion compositions of taxoid drugs, and methods for the use thereof to target cancer cells and cancer stem cells” (TargaGenix, Inc., priority 2016, dated 2024).
